Experimental data: ChEMBL document CHEMBL3272085, “Quantitative structure-activity relationships. 2. A mixed approach, based on Hansch and Free-Wilson Analysis” (1976)

Tests used:
Assay type in all cases: functional
[1] = test system: Aspergillus niger; test: Antimicrobial activity against Aspergillus niger
[2] = test system: Staphylococcus aureus; test: Antimicrobial activity against Staphylococcus aureus
[3] = test system: Enterococcus faecalis; test: Antimicrobial activity against Streptococcus faecalis
[4] = test system: Bacillus subtilis; test: Antimicrobial activity against Bacillus subtilis
[5] = test system: Bacillus cereus; test: Antimicrobial activity against Bacillus cereus
[6] = test system: Micrococcus luteus; test: Antimicrobial activity against Sarcina lutea
[7] = test system: Wickerhamomyces anomalus; test: Antimicrobial activity against Hansenula anomala

## Oc1ccccc1C1CCCCC1
[1]
  log(1/C): 4

## Cc1ccc(C(C)(C)C)c(O)c1
[1]
  log(1/C): 3.7

## Cc1cc(C)cc(O)c1
[1]
  log(1/C): 3.26

## Cc1cc(Cl)ccc1O
[1]
  log(1/C): 3.7

## CC(C)c1ccccc1O
[1]
  log(1/C): 3.35

## Cc1cccc(C)c1O
[1]
  log(1/C): 3.35

## CCCCCCCCCCCC[N+](C)(C)Cc1ccc(Cl)cc1
[2]
  log(1/C): 4.04

## C=C(C)C(=O)Oc1ccccc1
[3]
  log(1/C): 2.89
[2]
  log(1/C): 2.89
[4]
  log(1/C): 2.89
[5]
  log(1/C): 2.89
[6]
  log(1/C): 2.89
[7]
  log(1/C): 2.89

## C=C(C)C(=O)Oc1ccccc1Cl
[3]
  log(1/C): 3.08
[2]
  log(1/C): 3.08
[4]
  log(1/C): 3.08
[5]
  log(1/C): 3.08
[6]
  log(1/C): 3.08
[7]
  log(1/C): 3.28

## C=C(C)C(=O)Oc1ccc(Cl)cc1
[3]
  log(1/C): 3.25
[2]
  log(1/C): 3.12
[4]
  log(1/C): 3.25
[5]
  log(1/C): 3.25
[6]
  log(1/C): 3.25
[7]
  log(1/C): 3.25

## C=C(C)C(=O)Oc1cccc(Cl)c1
[3]
  log(1/C): 2.77
[2]
  log(1/C): 2.91
[4]
  log(1/C): 2.91
[5]
  log(1/C): 2.91
[6]
  log(1/C): 3.12
[7]
  log(1/C): 3.12

## C=C(C)C(=O)Oc1ccc(Cl)cc1Cl
[3]
  log(1/C): 3.49
[2]
  log(1/C): 3.49
[4]
  log(1/C): 3.8
[5]
  log(1/C): 3.49
[6]
  log(1/C): 3.49
[7]
  log(1/C): 3.49

## C=C(C)C(=O)Oc1c(Cl)cc(Cl)cc1Cl
[3]
  log(1/C): 3.76
[2]
  log(1/C): 3.76
[4]
  log(1/C): 3.76
[5]
  log(1/C): 3.76
[6]
  log(1/C): 3.24
[7]
  log(1/C): 3.46

## C=C(C)C(=O)Oc1cc(Cl)c(Cl)cc1Cl
[3]
  log(1/C): 3.84
[2]
  log(1/C): 3.84
[4]
  log(1/C): 3.84
[5]
  log(1/C): 3.84
[6]
  log(1/C): 3.54
[7]
  log(1/C): 3.54

## C=C(C)C(=O)Oc1c(Cl)cc(Cl)c(Cl)c1Cl
[3]
  log(1/C): 3.97
[2]
  log(1/C): 4.97
[4]
  log(1/C): 4.67
[5]
  log(1/C): 4.45
[6]
  log(1/C): 3.32
[7]
  log(1/C): 3.45

## C=C(C)C(=O)Oc1c(Cl)c(Cl)c(Cl)c(Cl)c1Cl
[3]
  log(1/C): 4.71
[2]
  log(1/C): 5.19
[4]
  log(1/C): 5
[5]
  log(1/C): 5
[6]
  log(1/C): 3.71
[7]
  log(1/C): 3.35

## C=C(C)C(=O)Oc1c(Br)c(Br)c(Br)c(Br)c1Br
[3]
  log(1/C): 3.64
[2]
  log(1/C): 5.32
[4]
  log(1/C): 5.32
[5]
  log(1/C): 3.85
[6]
  log(1/C): 3.64
[7]
  log(1/C): 3.35

## Cc1cc(Cl)cc(C)c1O
[1]
  log(1/C): 4.4

## CC(C)c1cc(Cl)ccc1O
[1]
  log(1/C): 4.3

## Cc1cc(O)c(C(C)(C)C)cc1Cl
[1]
  log(1/C): 4.3

## Oc1ccc(Cl)cc1C1CCCCC1
[1]
  log(1/C): 4.4

## Oc1ccc(Cl)cc1-c1ccccc1
[1]
  log(1/C): 4.52

## CCCCCCCCCCCC[N+](C)(C)Cc1ccccc1Cl
[2]
  log(1/C): 4.14

## CCCCCCCCCCCCCC[N+](C)(C)Cc1ccccc1Cl
[2]
  log(1/C): 4.14

## CCCCCCCCCCCCCCCC[N+](C)(C)Cc1ccccc1Cl
[2]
  log(1/C): 3.74

## CCCCCCCCCCCCCCCCCC[N+](C)(C)Cc1ccccc1Cl
[2]
  log(1/C): 3.43

## CCCCCCCC[N+](C)(C)Cc1ccc(Cl)cc1
[2]
  log(1/C): 2.6

## CCCCCCCCCC[N+](C)(C)Cc1ccc(Cl)cc1
[2]
  log(1/C): 3.6

## CCCCCCCCCCCCCC[N+](C)(C)Cc1ccc(Cl)cc1
[2]
  log(1/C): 4.34

## CCCCCCCCCCCCCCCC[N+](C)(C)Cc1ccc(Cl)cc1
[2]
  log(1/C): 3.85

## CCCCCCCCCCCCCCCCCC[N+](C)(C)Cc1ccc(Cl)cc1
[2]
  log(1/C): 3.17

## CCCCCCCC[N+](C)(C)Cc1ccc([N+](=O)[O-])cc1
[2]
  log(1/C): 2.11

## CCCCCCCCCC[N+](C)(C)Cc1ccc([N+](=O)[O-])cc1
[2]
  log(1/C): 3.11

## CCCCCCCCCCCC[N+](C)(C)Cc1ccc([N+](=O)[O-])cc1
[2]
  log(1/C): 4.2

## CCCCCCCCCCCCCC[N+](C)(C)Cc1ccc([N+](=O)[O-])cc1
[2]
  log(1/C): 4.23

## CCCCCCCCCCCCCCCC[N+](C)(C)Cc1ccc([N+](=O)[O-])cc1
[2]
  log(1/C): 4

## CCCCCCCCCCCCCCCCCC[N+](C)(C)Cc1ccc([N+](=O)[O-])cc1
[2]
  log(1/C): 3.46

## CCCCCCCC[N+](C)(C)Cc1ccc(Cl)cc1Cl
[2]
  log(1/C): 2.63

## CCCCCCCCCC[N+](C)(C)Cc1ccc(Cl)cc1Cl
[2]
  log(1/C): 3.65

## CCCCCCCCCCCC[N+](C)(C)Cc1ccc(Cl)cc1Cl
[2]
  log(1/C): 4.25

## CCCCCCCCCCCCCC[N+](C)(C)Cc1ccc(Cl)cc1Cl
[2]
  log(1/C): 4.28

## CCCCCCCCCCCCCCCC[N+](C)(C)Cc1ccc(Cl)cc1Cl
[2]
  log(1/C): 3.41

## CCCCCCCCCCCCCCCCCC[N+](C)(C)Cc1ccc(Cl)cc1Cl
[2]
  log(1/C): 3.3

## CCCCCCCC[N+](C)(C)Cc1ccc(Cl)c(Cl)c1
[2]
  log(1/C): 2.92

## CCCCCCCCCC[N+](C)(C)Cc1ccc(Cl)c(Cl)c1
[2]
  log(1/C): 3.79

## CCCCCCCCCCCC[N+](C)(C)Cc1ccc(Cl)c(Cl)c1
[2]
  log(1/C): 4.36

## CCCCCCCCCCCCCC[N+](C)(C)Cc1ccc(Cl)c(Cl)c1
[2]
  log(1/C): 4.04

## CCCCCCCCCCCCCCCC[N+](C)(C)Cc1ccc(Cl)c(Cl)c1
[2]
  log(1/C): 3.39

## CCCCCCCCCCCCCCCCCC[N+](C)(C)Cc1ccc(Cl)c(Cl)c1
[2]
  log(1/C): 3.11

## CCCCCCCCCCCC[N+](C)(C)Cc1ccc(OC)c(OC)c1
[2]
  log(1/C): 3.71

## CCCCCCCCCCCCCC[N+](C)(C)Cc1ccc(OC)c(OC)c1
[2]
  log(1/C): 4.11

## CCCCCCCCCCCCCCCC[N+](C)(C)Cc1ccc(OC)c(OC)c1
[2]
  log(1/C): 3.41

## CCCCCCCC[N+](C)(C)Cc1ccc2c(c1)OCO2
[2]
  log(1/C): 2.04

## CCCCCCCCCC[N+](C)(C)Cc1ccc2c(c1)OCO2
[2]
  log(1/C): 3.08

## CCCCCCCCCCCC[N+](C)(C)Cc1ccc2c(c1)OCO2
[2]
  log(1/C): 4

## CCCCCCCCCCCCCC[N+](C)(C)Cc1ccc2c(c1)OCO2
[2]
  log(1/C): 4.23

## CCCCCCCCCCCCCCCC[N+](C)(C)Cc1ccc2c(c1)OCO2
[2]
  log(1/C): 4.2

## CCCCCCCCCCCCCCCCCC[N+](C)(C)Cc1ccc2c(c1)OCO2
[2]
  log(1/C): 3.23

## CCCCCCCCCCCC[N+](C)(C)Cc1cc([N+](=O)[O-])ccc1O
[2]
  log(1/C): 2.7

## Oc1ccccc1-c1ccccc1 [2-PHENYLPHENOL]
[1]
  log(1/C): 4.1

## CCCCCCCCCCCC[N+](C)(C)Cc1ccccc1 [BENZODODECINIUM]
[2]
  log(1/C): 3.74

## CCCCCCCCCCCCCCCC[N+](C)(C)Cc1ccccc1 [CETALKONIUM]
[2]
  log(1/C): 3.92

## Cc1cc(O)ccc1Cl [CHLOROCRESOL]
[1]
  log(1/C): 3.7

## Cc1cc(O)cc(C)c1Cl [CHLOROXYLENOL]
[1]
  log(1/C): 4.22

## Cc1cccc(O)c1 [METACRESOL]
[1]
  log(1/C): 2.68

## CCCCCCCCCCCCCC[N+](C)(C)Cc1ccccc1 [MIRISTALKONIUM ION]
[2]
  log(1/C): 4.17

## Cc1ccccc1O [ORTHOCRESOL]
[1]
  log(1/C): 2.7

## Oc1ccc(Cl)cc1 [PARACHLOROPHENOL]
[1]
  log(1/C): 3.35

## Oc1ccccc1 [PHENOL]
[1]
  log(1/C): 2.35
